Tested on: HIV
Experiment: MT4 assay (anti-HIV activity)
Type: cell-based
Details: Human immunodeficiency virus 1, 96 h, antiviral HIV activity in HTLV-1 transformed cell line MT-4; luciferase read 96 hours later; 10 point dose response
How it was run: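 MT-4 cells infected with HIV, with inhibition readout by CellTiter-Glo luminescence at 96 h relative to no-compound control. Cytotoxicity measured in parallel under the same conditions. IC50 from a 10-point, 3-4-fold dilution series spanning >1000-fold, fitted with a four-parameter logistic equation.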

SMILES | IC50
Cc1ccc(-c2c(C)c3c(c(C)c2[C@H](OC(C)(C)C)C(=O)O)CCN(S(=O)(=O)c2cccc(F)c2)C3)cc1 [Example 57, (S)-2-(tert-butoxy)-2-(2-((3-fluorophenyl)sulfonyl)-5,8-dimethyl-7-(p-tolyl)-1,2,3,4-tetrahydroisoquinolin-6-yl)acetic Acid] | 292 nM
Cc1ccc(-c2c(C)c3c(c(C)c2[C@H](OC(C)(C)C)C(=O)O)CCN(S(=O)(=O)CC2CCCCC2)C3)cc1 [Example 58, (S)-2-(tert-butoxy)-2-(2-((cyclohexylmethyl)sulfonyl)-5,8-dimethyl-7-(p-tolyl)-1,2,3,4-tetrahydroisoquinolin-6-yl)acetic Acid] | 284 nM
Cc1ccc(-c2c(C)c3c(c(C)c2[C@H](OC(C)(C)C)C(=O)O)CCN(C2CCC4CCC2C4)C3)cc1 (stereo partly drawn) [Example 60, (2S)-2-(2-(bicyclo[3.2.1]octan-2-yl)-5,8-dimethyl-7-(p-tolyl)-1,2,3,4-tetrahydroisoquinolin-6-yl)-2-(tert-butoxy)acetic Acid] | 5 nM
Cc1ccc(-c2c(C)c3c(c(C)c2[C@H](OC(C)(C)C)C(=O)O)CCN(C2CCC2)C3)cc1 [Example 61, (S)-2-(tert-butoxy)-2-(2-cyclobutyl-5,8-dimethyl-7-(p-tolyl)-1,2,3,4-tetrahydroisoquinolin-6-yl)acetic Acid] | 141 nM
Cc1ccc(-c2c(C)c3c(c(C)c2[C@H](OC(C)(C)C)C(=O)O)CCN(S(=O)(=O)CC(C)(C)C)C3)cc1 [Example 62, (S)-2-(tert-butoxy)-2-(5,8-dimethyl-2-(neopentylsulfonyl)-7-(p-tolyl)-1,2,3,4-tetrahydroisoquinolin-6-yl)acetic Acid] | 11 nM
Cc1ccc(-c2c(C)c3c(c(C)c2[C@H](OC(C)(C)C)C(=O)O)CCN(S(=O)(=O)NC2CCCCC2)C3)cc1 [Example 63, (S)-2-(tert-butoxy)-2-(2-(N-cyclohexylsulfamoyl)-5,8-dimethyl-7-(p-tolyl)-1,2,3,4-tetrahydroisoquinolin-6-yl)acetic Acid] | 119 nM
COc1c(F)cccc1S(=O)(=O)N1CCc2c(C)c([C@H](OC(C)(C)C)C(=O)O)c(-c3ccc(C)cc3)c(C)c2C1 [Example 64, (S)-2-(tert-butoxy)-2-(2-((3-fluoro-2-methoxyphenyl)sulfonyl)-5,8-dimethyl-7-(p-tolyl)-1,2,3,4-tetrahydroisoquinolin-6-yl)acetic Acid] | 89 nM
Cc1ccc(-c2c(C)c3c(c(C)c2[C@H](OC(C)(C)C)C(=O)O)CCN(S(=O)(=O)C2CCCC2)C3)cc1 [Example 65, (S)-2-(tert-butoxy)-2-(2-(cyclopentylsulfonyl)-5,8-dimethyl-7-(p-tolyl)-1,2,3,4-tetrahydroisoquinolin-6-yl)acetic Acid] | 12 nM
Cc1ccc(-c2c(C)c3c(c(C)c2[C@H](OC(C)(C)C)C(=O)O)CCN(S(=O)(=O)C(C)C)C3)cc1 [Example 66, (S)-2-(tert-butoxy)-2-(2-(isopropylsulfonyl)-5,8-dimethyl-7-(p-tolyl)-1,2,3,4-tetrahydroisoquinolin-6-yl)acetic Acid] | 48 nM
Cc1ccc(-c2c(C)c3c(c(C)c2[C@H](OC(C)(C)C)C(=O)O)CCN(S(=O)(=O)C2CCCCCC2)C3)cc1 [Example 68, (S)-2-(tert-butoxy)-2-(2-(cycloheptylsulfonyl)-5,8-dimethyl-7-(p-tolyl)-1,2,3,4-tetrahydroisoquinolin-6-yl)acetic Acid] | 50 nM
Cc1ccc(-c2c(C)c3c(c(C)c2[C@H](OC(C)(C)C)C(=O)O)CCN(C2CCCCCCC2)C3)cc1 [Example 69, (S)-2-(tert-butoxy)-2-(2-cyclooctyl-5,8-dimethyl-7-(p-tolyl)-1,2,3,4-tetrahydroisoquinolin-6-yl)acetic Acid] | 6 nM
Cc1ccc(-c2c(C)c3c(c(C)c2[C@H](OC(C)(C)C)C(=O)O)CCN(C(C)C2CCCCC2)C3)cc1 (stereo partly drawn) [Example 70, (2S)-2-(tert-butoxy)-2-(2-(1-cyclohexylethyl)-5,8-dimethyl-7-(p-tolyl)-1,2,3,4-tetrahydroisoquinolin-6-yl)acetic Acid] | 130 nM
Cc1ccc(-c2c(C)c3c(c(C)c2[C@H](OC(C)(C)C)C(=O)O)CCN(C2CCC[C@@H](C)C2)C3)cc1 (stereo partly drawn) [Example 72, (2S)-2-(tert-butoxy)-2-(5,8-dimethyl-2-((3R)-3-methylcyclohexyl)-7-(p-tolyl)-1,2,3,4-tetrahydroisoquinolin-6-yl)acetic Acid] | 23 nM
Cc1ccc(-c2c(C)c3c(c(C)c2[C@H](OC(C)(C)C)C(=O)O)CCN(C2CC[C@@H](C)C2)C3)cc1 (stereo partly drawn) [Example 73, (2S)-2-(tert-butoxy)-2-(5,8-dimethyl-2-((3R)-3-methylcyclopentyl)-7-(p-tolyl)-1,2,3,4-tetrahydroisoquinolin-6-yl)acetic Acid] | 42 nM
Cc1ccc(-c2c(C)c3c(c(C)c2[C@H](OC(C)(C)C)C(=O)O)CCN(C2CC4CCC(C4)C2)C3)cc1 (stereo partly drawn) [Example 74, (2S)-2-(2-(bicyclo[3.2.1]octan-3-yl)-5,8-dimethyl-7-(p-tolyl)-1,2,3,4-tetrahydroisoquinolin-6-yl)-2-(tert-butoxy)acetic Acid] | 12 nM
Cc1ccc(-c2c(C)c3c(c(C)c2[C@H](OC(C)(C)C)C(=O)O)CCN(C(=O)C2CCCCCC2)C3)cc1 [Example 75, (S)-2-(tert-butoxy)-2-(2-(cycloheptanecarbonyl)-5,8-dimethyl-7-(p-tolyl)-1,2,3,4-tetrahydroisoquinolin-6-yl)acetic Acid] | 51 nM
Cc1ccc(-c2c(C)c3c(c(C)c2[C@H](OC(C)(C)C)C(=O)O)CCN(C(=O)C2(C)CCCCC2)C3)cc1 [Example 76, (S)-2-(tert-butoxy)-2-(5,8-dimethyl-2-(1-methylcyclohexanecarbonyl)-7-(p-tolyl)-1,2,3,4-tetrahydroisoquinolin-6-yl)acetic Acid] | 41 nM
Cc1ccc(-c2c(C)c3c(c(C)c2[C@H](OC(C)(C)C)C(=O)O)CCN(C2CCc4ccccc4C2)C3)cc1 (stereo partly drawn) [Example 77, (2S)-2-(tert-butoxy)-2-(5,8-dimethyl-2-(1,2,3,4-tetrahydronaphthalen-2-yl)-7-(p-tolyl)-1,2,3,4-tetrahydroisoquinolin-6-yl)acetic Acid] | 40 nM
Cc1ccc(-c2c(C)c3c(c(C)c2[C@H](OC(C)(C)C)C(=O)O)CCN(C(=O)C2CCc4ccccc4C2)C3)cc1 (stereo partly drawn) [Example 78, (2S)-2-(tert-butoxy)-2-(5,8-dimethyl-2-(1,2,3,4-tetrahydronaphthalene-2-carbonyl)-7-(p-tolyl)-1,2,3,4-tetrahydroisoquinolin-6-yl)acetic Acid] | 109 nM
Cc1c(-c2c(C)c3c(c(C)c2[C@H](OC(C)(C)C)C(=O)O)CCN(C(=O)C2CCCCC2)C3)cc(F)c2c1CCCO2 [Example 79, (S)-2-(tert-Butoxy)-2-((R)-2-(cyclohexanecarbonyl)-7-(8-fluoro-5-methylchroman-6-yl)-5,8-dimethyl-1,2,3,4-tetrahydroisoquinolin-6-yl)acetic Acid] | 35 nM
Cc1c(-c2c(C)c3c(c(C)c2[C@H](OC(C)(C)C)C(=O)O)CCN(S(=O)(=O)C2CCCCC2)C3)cc(F)c2c1CCCO2 [Example 80, (S)-2-(tert-Butoxy)-2-((R)-2-(cyclohexylsulfonyl)-7-(8-fluoro-5-methylchroman-6-yl)-5,8-dimethyl-1,2,3,4-tetrahydroisoquinolin-6-yl)acetic Acid] | 13 nM
Cc1c(-c2c(C)c3c(c(C)c2[C@H](OC(C)(C)C)C(=O)O)CCN(C2CCC(C)(C)CC2)C3)cc(F)c2c1CCCO2 [Example 81, (S)-2-(tert-Butoxy)-2-((R)-2-(4,4-dimethylcyclohexyl)-7-(8-fluoro-5-methylchroman-6-yl)-5,8-dimethyl-1,2,3,4-tetrahydroisoquinolin-6-yl)acetic Acid] | 4 nM
COc1c(F)cccc1C(=O)N1CCc2c(C)c([C@H](OC(C)(C)C)C(=O)O)c(-c3cc(F)c4c(c3C)CCCO4)c(C)c2C1 [Example 82, (S)-2-(tert-Butoxy)-2-((R)-2-(3-fluoro-2-methoxybenzoyl)-7-(8-fluoro-5-methylchroman-6-yl)-5,8-dimethyl-1,2,3,4-tetrahydroisoquinolin-6-yl)acetic Acid] | 20 nM
Cc1c(-c2c(C)c3c(c(C)c2[C@H](OC(C)(C)C)C(=O)O)CCN(CC2CCCCC2)C3)cc(F)c2c1CCCO2 [Example 85, (S)-2-(tert-Butoxy)-2-((R)-2-(cyclohexylmethyl)-7-(8-fluoro-5-methylchroman-6-yl)-5,8-dimethyl-1,2,3,4-tetrahydroisoquinolin-6-yl)acetic Acid] | 14 nM
Cc1c2c(c(C)c([C@H](OC(C)(C)C)C(=O)O)c1-c1ccc(Cl)cc1)CCN(S(=O)(=O)C1CCCCC1)C2 [Example 86, (S)-2-(tert-butoxy)-2-(7-(4-chlorophenyl)-2-(cyclohexylsulfonyl)-5,8-dimethyl-1,2,3,4-tetrahydroisoquinolin-6-yl)acetic Acid] | 38 nM
Cc1c2c(c(C)c([C@H](OC(C)(C)C)C(=O)O)c1-c1ccc(Cl)cc1)CCN(C1CCCCC1)C2 [Example 87, (S)-2-(tert-butoxy)-2-(7-(4-chlorophenyl)-2-cyclohexyl-5,8-dimethyl-1,2,3,4-tetrahydroisoquinolin-6-yl)acetic Acid] | 15 nM
Cc1c(-c2c(C)c3c(c(C)c2[C@H](OC(C)(C)C)C(=O)O)CCN(Cc2ccccc2)C3)cc(F)c2c1CCCO2 [Example 90, (S)-2-((R)-2-Benzyl-7-(8-fluoro-5-methylchroman-6-yl)-5,8-dimethyl-1,2,3,4-tetrahydroisoquinolin-6-yl)-2-(tert-butoxy)acetic Acid] | 67 nM
Cc1c(-c2c(C)c3c(c(C)c2[C@H](OC(C)(C)C)C(=O)O)CCN(C(=O)c2ccccc2)C3)cc(F)c2c1CCCO2 [Example 91, (S)-2-((R)-2-Benzoyl-7-(8-fluoro-5-methylchroman-6-yl)-5,8-dimethyl-1,2,3,4-tetrahydroisoquinolin-6-yl)-2-(tert-butoxy)acetic Acid] | 48 nM

— patent US20180334436A1 (VIIV HEALTHCARE UK LIMITED, priority 2015, published 2018)
